ChEMBL document CHEMBL1201862, “PubChem BioAssay data set” (2004)
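A five-concentration, 48-hour dose response in 96-well plates underlies each endpoint, interpolated linearly between surrounding concentrations. GI50 marks 50% less growth.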 The source made the active and inactive calls. Cut-off read from the data, not from the text of the source: active = GI50 up to about 1.1 µM and inactive = higher.

Key:
Test in all cases: NCI-60 cell line screen, 48 h
MDA-MB-435 = test system: MDA-MB-435
CAKI-1 = test system: CAKI-1
SNB-75 = test system: SNB-75
MDA-N = test system: MDA-N
A498 = test system: A498
TK-10 = test system: TK-10
NCI-H522 = test system: NCI-H522
SNB-19 = test system: SNB-19
UACC-257 = test system: UACC-257
SK-MEL-28 = test system: SK-MEL-28
SW-620 = test system: SW-620
PC-3 = test system: PC-3
UO-31 = test system: UO-31
NCI-H23 = test system: NCI-H23
SF-268 = test system: SF-268
HOP-92 = test system: HOP-92
CCRF-CEM = test system: CCRF-CEM
ACHN = test system: ACHN
U-251 = test system: U-251
MDA-MB-231 = test system: MDA-MB-231
Malme-3M = test system: Malme-3M
OVCAR-3 = test system: OVCAR-3
OVCAR-5 = test system: OVCAR-5
RXF 393 = test system: RXF 393
IGROV-1 = test system: IGROV-1
A549 = test system: A549
KM12 = test system: KM12
UACC-62 = test system: UACC-62
RPMI-8226 = test system: RPMI-8226
NCI-H226 = test system: NCI-H226
DU-145 = test system: DU-145
MOLT-4 = test system: MOLT-4
SK-OV-3 = test system: SK-OV-3
OVCAR-4 = test system: OVCAR-4
COLO 205 = test system: COLO 205
HT-29 = test system: HT-29
NCI/ADR-RES = test system: NCI/ADR-RES
Hs-578T = test system: Hs-578T
SN12C = test system: SN12C
OVCAR-8 = test system: OVCAR-8
BT-549 = test system: BT-549
EKVX = test system: EKVX
NCI-H460 = test system: NCI-H460
HOP-62 = test system: HOP-62
SK-MEL-5 = test system: SK-MEL-5
SF-295 = test system: SF-295
SK-MEL-2 = test system: SK-MEL-2
HCC 2998 = test system: HCC 2998
HCT-15 = test system: HCT-15
786-0 = test system: 786-0
HCT-116 = test system: HCT-116
M14 = test system: M14
LOX IMVI = test system: LOX IMVI
K562 = test system: K562
T47D = test system: T47D
SF-539 = test system: SF-539
HL-60 = test system: HL-60
SR = test system: SR

## COC(=O)C1(C(=O)OC)CC2=C(S(=O)(=O)c3ccccc3)C[C@H](S(=O)(=O)c3ccccc3)[C@H]2C1
MDA-MB-435
  GI50: 76.4 µM (inactive)
CAKI-1
  GI50: > 100 µM (inactive)
SNB-75
  GI50: 37.8 µM (inactive)
MDA-N
  GI50: 39.4 µM (inactive)
A498
  GI50: > 100 µM (inactive)
TK-10
  GI50: 52.4 µM (inactive)
NCI-H522
  GI50: 33 µM (inactive)
SNB-19
  GI50: 71.6 µM (inactive)
UACC-257
  GI50: > 100 µM (inactive)
SK-MEL-28
  GI50: > 100 µM (inactive)
SW-620
  GI50: > 100 µM (inactive)
PC-3
  GI50: 41.9 µM (inactive)
UO-31
  GI50: > 100 µM (inactive)
NCI-H23
  GI50: > 100 µM (inactive)
SF-268
  GI50: > 100 µM (inactive)
HOP-92
  GI50: 19.6 µM (inactive)
CCRF-CEM
  GI50: > 100 µM (inactive)
ACHN
  GI50: > 100 µM (inactive)
U-251
  GI50: > 100 µM (inactive)
MDA-MB-231
  GI50: 27.4 µM (inactive)
Malme-3M
  GI50: 80.2 µM (inactive)
OVCAR-3
  GI50: 29 µM (inactive)
OVCAR-5
  GI50: > 100 µM (inactive)
RXF 393
  GI50: 13.8 µM (inactive)
IGROV-1
  GI50: 19.9 µM (inactive)
A549
  GI50: > 100 µM (inactive)
KM12
  GI50: 91.8 µM (inactive)
UACC-62
  GI50: 23.3 µM (inactive)
RPMI-8226
  GI50: 11.7 µM (inactive)
NCI-H226
  GI50: > 100 µM (inactive)
DU-145
  GI50: > 100 µM (inactive)
MOLT-4
  GI50: 46.7 µM (inactive)
SK-OV-3
  GI50: > 100 µM (inactive)
OVCAR-4
  GI50: > 100 µM (inactive)
COLO 205
  GI50: 62.4 µM (inactive)
HT-29
  GI50: > 100 µM (inactive)
NCI/ADR-RES
  GI50: > 100 µM (inactive)
Hs-578T
  GI50: > 100 µM (inactive)
SN12C
  GI50: > 100 µM (inactive)
OVCAR-8
  GI50: > 100 µM (inactive)
BT-549
  GI50: > 100 µM (inactive)
EKVX
  GI50: > 100 µM (inactive)
NCI-H460
  GI50: 39.6 µM (inactive)
HOP-62
  GI50: 78.9 µM (inactive)
SK-MEL-5
  GI50: 82.8 µM (inactive)
SF-295
  GI50: > 100 µM (inactive)
SK-MEL-2
  GI50: 27.2 µM (inactive)
HCC 2998
  GI50: 15.7 µM (inactive)
HCT-15
  GI50: 35.3 µM
786-0
  GI50: > 100 µM (inactive)
HCT-116
  GI50: 70.5 µM (inactive)
M14
  GI50: > 100 µM (inactive)
LOX IMVI
  GI50: > 100 µM (inactive)
K562
  GI50: 23.7 µM (inactive)
T47D
  GI50: 30.3 µM (inactive)

## Cn1c2ccccc2c2c(-c3ccccc3)[n+]3ccccc3nc21
MDA-MB-435
  GI50: 20.6 µM (inactive)
CAKI-1
  GI50: > 100 µM (inactive)
SNB-75
  GI50: 19.5 µM (inactive)
SF-539
  GI50: 34.8 µM (inactive)
A498
  GI50: > 100 µM (inactive)
TK-10
  GI50: 31.9 µM (inactive)
NCI-H522
  GI50: 25.4 µM (inactive)
SNB-19
  GI50: 65.8 µM (inactive)
UACC-257
  GI50: 18.4 µM (inactive)
SK-MEL-28
  GI50: 20.5 µM (inactive)
SW-620
  GI50: 23.2 µM (inactive)
PC-3
  GI50: 26.2 µM (inactive)
UO-31
  GI50: > 100 µM (inactive)
NCI-H23
  GI50: 23.2 µM (inactive)
SF-268
  GI50: 18.5 µM (inactive)
HOP-92
  GI50: 14.6 µM (inactive)
CCRF-CEM
  GI50: 30.5 µM (inactive)
ACHN
  GI50: 98.6 µM (inactive)
U-251
  GI50: 24.8 µM (inactive)
MDA-MB-231
  GI50: 32.9 µM (inactive)
Malme-3M
  GI50: 24.3 µM (inactive)
OVCAR-3
  GI50: 23.3 µM (inactive)
OVCAR-5
  GI50: 50.9 µM (inactive)
IGROV-1
  GI50: 26.7 µM (inactive)
A549
  GI50: 52.7 µM (inactive)
KM12
  GI50: 17.1 µM (inactive)
UACC-62
  GI50: 21.2 µM (inactive)
RPMI-8226
  GI50: 17.8 µM (inactive)
DU-145
  GI50: 53.3 µM (inactive)
MOLT-4
  GI50: 42.2 µM (inactive)
SK-OV-3
  GI50: > 100 µM (inactive)
OVCAR-4
  GI50: 61.7 µM (inactive)
COLO 205
  GI50: 43.1 µM (inactive)
HL-60
  GI50: 24.8 µM (inactive)
HT-29
  GI50: 53.7 µM (inactive)
NCI/ADR-RES
  GI50: > 100 µM (inactive)
Hs-578T
  GI50: 34.8 µM (inactive)
SN12C
  GI50: 25.8 µM (inactive)
OVCAR-8
  GI50: 36.3 µM (inactive)
BT-549
  GI50: 23 µM (inactive)
EKVX
  GI50: 36.1 µM (inactive)
NCI-H460
  GI50: 21.9 µM (inactive)
HOP-62
  GI50: 22.5 µM (inactive)
SK-MEL-5
  GI50: 16.8 µM (inactive)
SF-295
  GI50: 46.3 µM (inactive)
SK-MEL-2
  GI50: 20.2 µM (inactive)
HCT-15
  GI50: > 100 µM
SR
  GI50: 23.9 µM (inactive)
786-0
  GI50: 23.2 µM (inactive)
M14
  GI50: 18.1 µM (inactive)
LOX IMVI
  GI50: 18.5 µM (inactive)
K562
  GI50: 34 µM (inactive)
T47D
  GI50: 51.5 µM (inactive)
